Values quoted from earlier work as cited in patent US12168054B2 (SYNDAX PHARMACEUTICALS, INC., priority 2017, dated 2024).

Assays:
histone acetylation = settings: following the administration of entinostat
[1] = in vivo

## Nc1ccccc1NC(=O)c1ccc(CNC(=O)OCc2cccnc2)cc1 [Entinostat, N-(2-aminophenyl)-4-[N-(pyridine-3-yl)methoxycarbonylamino-methyl]-benzamide]
Histone acetylation
  persistence of changes in histone acetylation following administration: persist for several weeks
[1]
  half-life: about 100 hours
